The values that follow come from patent EP0694299B1, “The use of( a) bicycloheptane derivative(s)” (EGIS GYOGYSZERGYAR RT., priority 1994, dated 1996).

Structures are written as SMILES. Read-outs that look alike come from different tables or passages of the source. A value given as a limit tells only on which side of the number the result lay.

In this assay the test system is cholecyst contraction induced by yolk. Briefly: Inhibition of yolk-induced gallbladder (cholecyst) mass decrease in mice. The following applies: Mus musculus, po. The assay is classed as in vivo, male mice from the strain NMRI. As for the experimental part: The effect of the bicycloheptane derivatives used according to the invention is verified on the following test. Known spasmolytics 1-[3',4'-di-(ethoxy)-benzyliden]-6,7-di-- [ethoxy] -1,2,3,4-terra-[hydro] -isoquinoline {drotaverine} and 1- [3',4'-di-(methoxy)-benzyl]-6,7-di-[methoxy] -isoquinoline {papaverine} are employed for comparison. (These spasmolytics are most often used in the therapeutical practice).
The tests were performed on male mice from the strain NMRI in groups consisting of 8 to 12 animals. At the beginning of the test, the animals were weighing 20 to 30 g.
The animals were starved for 24 hours before beginning the first treatment, however, they were allowed to consume water ad libitum. The compounds to be tested and the carrier (0.4% solution of methyl cellulose) were administered perorally in a volume of 10 ml/kg.
45 minutes after this treatment, an emulsion of 30% of yolk in 0.4% methyl cellulose solution was administered perorally. Each mouse consumed 0.5 ml of the emulsion. The animals of the control group consumed 0.5 ml of the carrier i.e. 0.4% methyl cellulose solution.
After 15 minutes, cervicalis dislocatio was employed, the gallbladders were removed and weighed, one by one. The effect of the compounds tested was given as the inhibition of the cholecyst mass decrease induced by yolk, in percentage. […] Table

[1] abbreviates: dose causing 50% inhibition of the cholecyst mass decrease induced by yolk, p.o. 45 min before 30% yolk emulsion, gallbladders weighed 15 min later, linear regression, read-out: ID50 p.o.

On to `CN(C)CCO[C@@]1(c2ccccc2)C[C@@H]2CC[C@@]1(C)C2(C)C.O=C(O)/C=C/C(=O)O` [(1S,2R,4S)-(+)-2-[Phenyl] -2-[2'-(dimethylamino)-ethoxy]-1,7,7-tri-[methyl] -bicyclo[2.2.1]heptane (E) -2-butenedioate], for which the ED50 under setting [1] is more than 100 mg/kg.
Still for that read-out and setting: for `CCOc1ccc(/C=C2\NCCc3cc(OCC)c(OCC)cc32)cc1OCC` [Drotaverine, 1-[3',4'-di-(Ethoxy)-benzyliden]-6,7-di-[ethaxy]-1,2,3,4-tetra-[hydro]-isoquinoline, reference compound] the value was more than 100 mg/kg; for `CN(C)CCO[C@]1(c2ccccc2)C[C@H]2CC[C@]1(C)C2(C)C.O=C(O)/C=C/C(=O)O` [(1R,2S,4R)-(-)-2-[Phenyl]-2-[2'-(dimethylamino)-ethoxy]-1,7,7-tri-[methyl] -bicyclo[2.2.1]heptane (E)-2-butenedioate], 7 mg/kg.
As for `COc1ccc(Cc2nccc3cc(OC)c(OC)cc23)cc1OC` [Papaverine, 1-[3',4'-di-(Methoxy)-benzyl]-6,7-di-[methoxy]-isoquinoline, reference compound], the ED50 (read-out: ID50 p.o. in mg/kg) was more than 100 mg/kg.
For `CC1(C)[C@@H]2CC[C@@]1(C)[C@@](OCC[N+](C)(C)[O-])(c1ccccc1)C2` [(1R,2S,4R)-(-)-2-[Phenyl]-2-[2'-(dimethylamino)-ethoxy]-1,7,7-tri-[methyl]-bicyclo[2.2.1]heptane-N-oxide (E)-2-butenedioate], under setting [1], the ED50 is more than 100 mg/kg.
